{
  "source": "patent US6984729B1",
  "about": "“Oligonucleotides specific for hepatitis B virus” (priority 1995, dated 2006)",
  "key": {"[1]": {"test_system": "internally 32P-labelled HBV precore-core RNA (epsilon region)", "assay": "RNase H cleavage of HBV precore-core RNA with noncontiguous oligonucleotides targeted to the epsilon region", "format": "biochemical, hepatitis B virus", "details": "for total RNA cleavage by RNase H: 10+10 and 12+12 noncontiguous oligonucleotides versus mixtures of arms, FIGS. 5A, 6A; for double cleavage (twice cleaved product) by RNase H on both sides of the epsilon stem: FIGS. 5B, 6B", "description": "To determine whether an oligonucleotide of the invention is capable of successfully hybridizing to its target, an RNase H assay was performed (Frank et al. (1993) Proc. Int. Conf. Nucleic Acid Med. Applns. 1:4.14(abstract)). This assay is useful when a region of at least four contiguous nucleotides of the oligonucleotide is DNA and the target is RNA. Hybridization of the DNA portion of the oligonucleotide to the RNA target is identified by cleavage at that site by RNase H.\nNoncontiguous oligonucleotides targeted to the HBV epsilon region have also been prepared and tested. The epsilon region is characterized by an RNA stem-loop structure consisting primarily of double-stranded RNA with a single-stranded bulge and loop of 6 bases each (FIG. 3). […] The ability of RNase H to cleave an RNA in this manner inflicts greater damage on the RNA than normal antisense oligodeoxynucleotides, while allowing the targeting of a biologically important region that is otherwise difficult to target due to its double-stranded nature.\nBased on this information, several oligodeoxynucleotide phosphorothioates were prepared to test the hypothesis that hybridization by mode B is preferred when spanning the base of an RNA stem. 20mer and 24mer noncontiguous oligonucleotides (Table 2) were prepared as well as the 10mers and 12mers corresponding to the “arms” of the noncontiguous sequences.\nIf a single oligodeoxynucleotide were able to bind across the base of epsilon to sequences on either side of the stem, RNase H might cleave both sites and effectively cut out the epsilon stem-loop from the RNA. […] The 12+12 noncontiguous phosphorothioates show the same ability to bind across the base of the RNA stem. […] Double cleavage of the transcript in the presence of the mixture of 12mer arms (HBV71+HBV72) was much slower (FIG. 6B).\nWhen oligonucleotides hybridizing via mode B were lengthened to allow strand invasion of the RNA stem, disruption of the stem-loop structure occurred. Oligonucleotides HBV89 (SEQ ID NO:39), HBV90 (SEQ ID NO:40), and HBV91 (SEQ ID NO:41) bind across the base of epsilon via mode B and strand invade on either the 5 side (HBV89) or the 3′ side (HBV90 and HBV91) of the RNA stem. HBV89M is an extension of HBV64M with ten 2′-O-methyl RNA residues invading the RNA stem on the 5′-side. Addition of these strand invading nucleotides increased the cleavage efficiency from 23% to 32% at 100 nM oligonucleotide.\nUniformally ^32P-labelled RNA was prepared from 1 μg linearized plasmid using the Ambion MEGAscript In Vitro Transcription Kit (Ambion, Inc., Austin, Tex.) according to the manufacturers' instructions, using [α-^32p] CTP as the radioactive label. The RNA was treated with RNase-free DNase I (Ambion, Inc., Austin, Tex.), extracted with phenol:chloroform: isoamyl alcohol (25:24:1) and purified from nucleotides and nucleosides on a G-50 Sephadex spin column (Boehringer-Mannheim, Indianapolis, Ind., or Pharmacia, Uppsala, Sweden).\nIn 9 μl 1× RNase H buffer (40 mM Tris-HCl pH 7.4, 4 mM MgCl2, 1 mM DTT), 20–100 nM labelled RNA and 100 nM oligonucleotides were preincubated for 15 min at 37° C. 1 μl RNase H (1 U/μl) was added, and the reaction was incubated at 37° C. for 10 min. The reactions were quenched and analyzed as described above.\nQuantitation of the cleavage products was performed using software supplied with the Phosphorimager (Molecular Dynamics, Sunnyvale, Calif., or Bio-Rad Laboratories, Hercules, Calif.). “Counts” were determined by drawing a box around the band of interest and subtracting the background determined with a box drawn nearby. Counts in a product band were compared to total counts in the lane above that band to determine % cleavage."}, "[2]": {"test_system": "HBV genomes in the supernatants from HepG2.2.15 cells", "assay": "Kinetic PCR HBV anti-viral assay on supernatants from HepG2.2.15 cells", "format": "cell-based, hepatitis B virus", "details": "copy number of HBV genomes in HepG2.2.15 supernatants, day 10", "description": "In addition to Southern hybridizations, kinetic PCR was performed to assay the supernatants from the HepG2.2.15 cells. This procedure was carried out as described by Higuchi et al. (Biotechnol. (1993) 11:1026–1030). All PCRs were carried out with two sets of external controls which consisted of a dilution series of a known concentration of plasmid DNA that contained the HBV core gene amplified with the same primer set. These controls generated a standard curve that was used to calculate the copy number of HBV genomes in the supernatants from cells exposed to the various dilutions of compound.\nThe anti-viral assay was performed using HepG 2.2.15 cells (Sells et al. ([…]) Proc. Natl. Acad. Sci. (USA) 84:1005–1009) seeded at a density of 1×10^5 per well in 24 well plates. The cells were grown to confluence and allowed to stabilize for 2–3 days in RPMI media (supplemented with 10% fetal calf serum (FCS), 2 mM glutamine and penstrep (Life Technologies Ltd., Paisley, Scotland) prior to the addition of the oligonucleotide (defined as day 0). Six dilutions (10, 5, 1, 0.5, 0.1, and 0 μM) were set up in duplicate for each of the antisense oligonucleotides. In each assay run, the nucleoside analog, β-L-(2R,5S)-1,3 oxathiolanyl cytosine (3TC) (Glaxo, Greenford, U.K.) was included as positive control at 0.5, 0.1, 0.075, 0.05, and 0.01 and 0 μM in duplicate. Oligonucleotide was added to 1 ml of RPMI media (supplemented with 3% FCS, 2 mM glutamine and penstrep) at each of the indicated dilutions. At days 2, 4 and 7, the old media was removed and replaced with fresh media containing compound. At day 10, the supernatants were harvested, clarified by low speed centrifugation, prior to the addition of Triton X100 (Sigma, St. Louis, Mo.) and tri-n-butyl phosphate to give a final concentration of 1%. The samples were then heated to 70° C. for 20 minutes to disrupt the viral particles.\nFollowing this treatment, the viral particles were subject to analysis by kinetic PCR. The primers RJ407 (SEQ ID NO:51) and RJ431 (SEQ ID NO:52) were used to detect a 205 bp fragment of the core gene. Kinetic PCR was performed essentially as described by Higuchi et al. (Biotechnol. (1993) 11:1026–1030). Briefly, the PCR reactions were set up under standard conditions except that ethidium bromide was included at a concentration of 4 μg/ml. […] A kinetic PCR analysis was performed by plotting the average intensity of fluorescence from each PCR sample after each annealing/extension cycle against the cycle number. The original template concentration can be calculated by utilizing a standard fluorescence curve generated by templates of known concentration."}, "HBVpol RNA": {"test_system": "HBVpol RNA", "assay": "In vitro translation assay (wheat germ translation system)", "format": "biochemical, hepatitis B virus", "details": "FIG. 8", "description": "The oligonucleotides of the invention can be assayed for antisense inhibitory activity with a number of different assays. For example, an in vitro translation assay can be used to test antisense activity in which an antisense oligonucleotide can inhibit synthesis of a protein product encoded by the targeted mRNA. In such an assay, oligonucleotides targeted to the polymerase gene were tested against both target and an unrelated control RNA in the wheat germ translation system. […] Results are represented graphically in FIG. 7.\nThis assay was also used to compare the activity of mismatched oligonucleotides to the activity of the parent oligonucleotide. Four such oligonucleotides, all derivatives of HBVpol-2 (HBVpol-A, SEQ ID NO:46; HBVpol-B, SEQ ID NO:47; HBVpol-C, SEQ ID NO:48, HBVpol-D, SEQ ID NO:49) (Table 1) were synthesized and tested in the assay.\nThe 5′ end of the polymerase gene (pol) open reading frame, nt 2292–2942, was amplified by the PCR from the full length HBV clone pCH3/3097 (Bartenschlager et al. (1992) Nucleic Acids Res. 20:195–202). The 5′ amplification primer AS10 (SEQ ID NO:55) encoded an EcoRI site. The 3′ amplification primer AS11 (SEQ ID NO:56) both encoded a PstI site and introduced a stop codon in the place of a leucine codon at position 2942–2944. The PCR product was digested with EcoRI and PstI (Promega, Madison, Wis.) and inserted into similarly digested plasmid vector pGEM-3z (Promega, Madison, Wis.). The resulting recombinant plasmid was recut with PstI and an oligonucleot-ide dA:dT(30) linker was introduced.\nB. In vitro Transcription of RNA pHBVpol and a second plasmid pHSVProt were linearized with HindIII (Promega, Madison, Wis.), RNA was in vitro transcribed from each construct using T7 Cap-Scribe reagents (Boehringer-Mannheim, Indianapolis, Ind.) employed as per the manufacturer's instructions. The quantity and quality of the RNA's was assessed on a 2% agarose/formaldehyde gel. The control HSVProt RNA was arbitrarily diluted 10 fold to 200 ng/μl and stored in 20 μl aliquots at −80° C.\nIn this series of experiments only phosphodiester (PO) oligonucleotides were used. 5 μM, 2.5 μM, and 1.25 μM stocks of each of HBVpol-1, HBVpol-2, HBVpol-3, and randomer were made up and stored frozen. Reactions were set up using 100 ng HBVpol and 200 ng pHSVprot. The volume of water in the translation master mix was reduced to allow the addition of 1 μl of each dilution of each oligonucleotide to the reactions whilst maintaining the final volume at 12 μl. This corresponds to final oligonucleotide concentrations of approximately 400 nM, 200 nM, and 100 nM."}},
  "note": "Strand notation (5' to 3'): a small letter for the sugar, then the base; units joined by * are phosphorothioate-linked, units joined directly phosphodiester-linked; [ ] holds rarer units or linkages, { } end groups; capitals alone tell only the bases. d = 2'-deoxy (DNA)",
  "data": [
    {"substance": "AGAGATGATTTAAGGGTCGATGTCCATGCC (chemistry not given here) [HBV90]", "values": [
      {"measurement": "strand invasion of the RNA stem evidenced by RNase H cleavage within the stem near the core initiator", "setting": "[1]", "result": "able to strand invade"}
    ]},
    {"substance": "AGGCAGAGGTTAAGGGTCGA (antisense dA*dG*dG*dC*dA*dG*dA*dG*dG*dT*dT*dA*dA*dG*dG*dG*dT*dC*dG*dA) [HBV66]", "values": [
      {"measurement": "total RNA cleavage by RNase H", "setting": "[1]", "result": "activate RNase H cleavage of the transcript more effectively than the mixture of 10mer arms"},
      {"measurement": "double cleavage (twice cleaved product) by RNase H on both sides of the epsilon stem", "setting": "[1]", "result": "greater after 10 minutes than in the presence of HBV68"}
    ]},
    {"substance": "AGGCAGAGGTTAAGGGTCGATGTCCATGCC (phosphorothioate, further chemistry not given here) [HBV91]", "values": [
      {"measurement": "strand invasion of the RNA stem evidenced by RNase H cleavage within the stem near the core initiator", "setting": "[1]", "result": "able to strand invade"}
    ]},
    {"substance": "GACAUGAACAAGAGAUGAUUTAAGGGTCGA (RNA letters in 5' part, chemistry not given here) [HBV89M]", "values": [
      {"measurement": "cleavage efficiency", "setting": "[1]; 100 nM oligonucleotide, RNase H", "result": 32, "unit": "%"}
    ]},
    {"substance": "GAGGTGAAAAAGTTGCATGG (antisense dG*dA*dG*dG*dT*dG*dA*dA*dA*dA*dA*dG*dT*dT*dG*dC*dA*dT*dG*dG) [HBV48]", "values": [
      {"measurement": "IC50", "setting": "[2]", "result": 700, "unit": "nM"}
    ]},
    {"substance": "GATAGGGGCATTTGGTGcTC (antisense dG*dA*dT*dA*dG*dG*dG*dG*dC*dA*dT*dT*dT*dG*dG*dT*dG*dC*dT*dC) [HBVpol-C, single mismatch derivative of HBVpol-2]", "values": [
      {"measurement": "antisense activity of mismatched oligonucleotides compared to parent HBVpol-2", "setting": "HBVpol RNA", "result": "varying degrees of reduction in activity"}
    ]},
    {"substance": "GATAGGGGCcTTTGGTGGTC (antisense dG*dA*dT*dA*dG*dG*dG*dG*dC*dC*dT*dT*dT*dG*dG*dT*dG*dG*dT*dC) [HBVpol-B, single mismatch derivative of HBVpol-2]", "values": [
      {"measurement": "antisense activity of mismatched oligonucleotides compared to parent HBVpol-2", "setting": "HBVpol RNA", "result": "varying degrees of reduction in activity"}
    ]},
    {"substance": "GAcAGGGGCATTTGGTGGTC (antisense dG*dA*dC*dA*dG*dG*dG*dG*dC*dA*dT*dT*dT*dG*dG*dT*dG*dG*dT*dC) [HBVpol-A, single mismatch derivative of HBVpol-2]", "values": [
      {"measurement": "antisense activity of mismatched oligonucleotides compared to parent HBVpol-2", "setting": "HBVpol RNA", "result": "varying degrees of reduction in activity"}
    ]},
    {"substance": "GAcAGGGGCcTTTGGTGcTC (antisense dG*dA*dC*dA*dG*dG*dG*dG*dC*dC*dT*dT*dT*dG*dG*dT*dG*dC*dT*dC) [HBVpol-D, three mismatches, derivative of HBVpol-2, reference compound]", "values": [
      {"measurement": "antisense activity of mismatched oligonucleotides compared to parent HBVpol-2", "setting": "HBVpol RNA", "result": "abrogated antisense activity"}
    ]},
    {"substance": "TAAGGGTCGAAGGCAGAGGT (antisense dT*dA*dA*dG*dG*dG*dT*dC*dG*dA*dA*dG*dG*dC*dA*dG*dA*dG*dG*dT) [HBV68]", "values": [
      {"measurement": "total RNA cleavage by RNase H", "setting": "[1]", "result": "activate RNase H cleavage of the transcript more effectively than the mixture of 10mer arms"}
    ]},
    {"substance": "TATAAGGGTCGAAGGCAGAGGTGA (antisense dT*dA*dT*dA*dA*dG*dG*dG*dT*dC*dG*dA*dA*dG*dG*dC*dA*dG*dA*dG*dG*dT*dG*dA) [HBV79]", "values": [
      {"measurement": "total RNA cleavage by RNase H", "setting": "[1]", "result": "equal"},
      {"measurement": "double cleavage (twice cleaved product) by RNase H on both sides of the epsilon stem", "setting": "[1]", "result": "efficiently activate RNase H cleavage on both sides of the stem after only 1.5 minutes"}
    ]},
    {"substance": "TCGATGTCCATGCCCCAAAG (phosphorothioate, further chemistry not given here) [HBV4]", "values": [
      {"measurement": "IC50", "setting": "[2]", "result": 1200, "unit": "nM"}
    ]}
  ]
}
